Results: patent publication US9453050B2, “Compositions for treating glioma” (GLIA SP Z.O.O., priority 2011, dated 2016)

How the values were obtained:
[1] = system: microglia cells; assay: Real-Time PCR of M2 phenotype markers and iNOS in microglia treated with U87-MG GCM plus peptides; format: cell-based, mouse; details: 500 μM peptide in GCM, 6 h
Description: (§1) Total RNA (2 μg) isolated from microglia cultures untreated or treated for 6 h with LPS or G-CM was used as a template to generate cDNA. As endogenous control 18S (Hs99999901_s1) rRNA was applied. Gene expression quantification was performed using the Applied Biosystem TaqMan® The real time amplifications were performed in duplicates in a 20 μl reaction volume containing 2×SYBR PCR MasterMix and a set of primers designed using PRIMER EXPRESS software for the following genes: iNOS, COX-2, II1beta, TNF alpha, MMP-2, MMP-9, MMP-14, Arg1, Id1 and c-Myc. The amount of target mRNA was first normalized to the 18S RNA expression level and then to a control. Data were analysed by the Relative Quantification (^ΔΔCt) method using 7500 System SDS software (Applied Biosystems). The expression of each product was normalized to 18S rRNA and is shown as the ratio of the target gene to 18S gene expression, calculated by 2^−ΔΔCt.
U87-MG human glioma cells were plated on 100 mm culture dishes in a total volume of 8 mL culture medium for 24 h. […]
The expression level of genes that were previously identified as markers of the M2 microglia/macrophage phenotype (see FIG. 4.) such as: Arg1, Id1, c-Myc and MMP-14 was determined using Real-Time PCR. Likewise, the expression level of iNOS was determined to evaluate induction of an immune response. […]

[2] = system: rat primary microglia cultures; assay: GCM-induced amoeboid transformation of microglia (F-actin staining); format: cell-based; details: pre-incubation with 500 μM peptide; FIG. 6A
Description: Cell culture and treatment. Primary cultures of rat microglia were prepared from 1-day-old Wistar rat pups as described previously (Zawadzka and Kaminska 2003). Briefly, cells were isolated from cerebral cortices by trypsination, mechanically dissociated and plated at the density of 3×10^5 cells/cm^2 in Dulbecco's modified Eagle medium (with Glutamax and high-glucose formula 4.5 g/L, Gibco) supplemented with heat-inactivated 10% fetal bovine serum (Gibco), 100 U/mL penicillin, and 0.1 mg/mL streptomycin on poly-L-lysine coated culture 75 cm^2 flasks. Murine pEGFP-GL261 glioma cells were cultured in DMEM with 10% FBS and antibiotics (50 U/ml penicillin, 50 μg/ml streptomycin). Primary cultures of astrocytes were prepared from cerebral cortex of 2-day-old C57BL/6 newborn mice. Astrocytes were cultured in DMEM media with high glucose supplemented with 10% FBS, 100 U/ml penicillin and 100 μg/ml streptomycin. Culture medium was changed after 3 days and then twice a week. Cell cultures were maintained at 37° C. in humidified 5% CO2/95% air incubator (Heraeus, Hanau, Germany). […]
Cells were washed with a phosphate buffer saline (PBS) and fixed with 2% paraformaldehyde at indicated time periods. […] Morphological alterations were monitored by fluorescent microscopy with excitation 450-490 nm, recorded with 20× objective. […]

[3] = system: rat primary microglia cultures; assay: Phagocytosis of fluorescent beads by GCM-treated microglia; format: cell-based; details: 500 μM peptide; FIG. 6B
Description: Microglia cells (1×10^5) were seeded on 24-wells plates and after 24 hours cells were transfected with 25 nM control non-targeting siRNA, and siRNA to αv or β3, or two siRNA together (ON-TARGET siRNA, Dharmacon) using 0.25 μl of DharmaFECT 3 transfection reagent in 0.5 ml culture medium. After 48 h the transfection medium was replaced by G-CM and phagocytic properties of microglia were determined as described. To estimate the silencing efficiency cells were removed from the culture plates by trypsynization and suspended in MACS buffer (PBS, 2 mM EDTA, 0.5% BSA) at final concentration 1×10^5 cells/100 μl. Cell surface expression of the integrins was analysed using primary antibodies to αv or β3 (BD Biosciences) and anti-mouse-Alexa Fluor 647 secondary antibody (Invitrogen). The fluorescent intensity of the labelled cells was analysed with FACSCalibur (Beckton Dickinson). The mean fluorescent intensity was compared with the control siRNA and expressed as the relative change to the control condition for each experimental siRNA.
Phagocytic properties of microglia were determined by incubation of cells with 2 μm fluorescent latex beads (Sigma-Aldrich, Saint Louis, Mo., USA) for 90 min. […] The percentage of cells with none/low (<2 beads per cell), medium (≧2<10) or high (≧10 beads per cell) phagocytic activity was counted. […]

[4] = system: rat primary microglia cultures; assay: Scratch assay of microglia motility; format: cell-based; details: GCM with RGD inhibitor; FIG. 6C
Description: Microglia were platted on a 35 mm Petri dish at the density of 1.5×10^6 cells and after 48 hours the cultures were gently scratched using a pipette tip and microglia cells were cultured under various experimental conditions (control, 100 ng/mL LPS or G-CM). Motility of microglia cells was determined 3 hours after treatment. Migrating cells were visualized by phase-contrast microscopy.
Using the rat lactadherin amino acid sequence, a 7-aa RGD-containing peptide (RGD) was designed as a competitive inhibitor (set forth in SEQ ID NO: 18). A scrambled sequence peptide was used as a control (SCR). Pre-incubation with the chemically synthesized 500 μM RGD peptide, but not with the SCR peptide, prevented transformation of microglia into amoeboid cells following GCM induction (amoeboid cells indicated with arrows) (FIG. 6A).

[5] = system: phosphorylated FAK, Akt and ERK in microglia cells; assay: Immunoblotting of phosphorylated kinases in GCM-treated microglia; format: cell-based, rat; details: pre-treatment with peptide; FIG. 6E
Description: Whole cell lysates were prepared by scraping the cells into the buffer containing phosphatase and protease inhibitors (20 mM Tris HCl, pH6.8, 137 mM sodium chloride, 25 mM β-glycerophosphate, 2 mM sodium pyrophosphate, 2 mM EDTA, 1 mM sodium orthovanadate, 1% Triton X-100, 10% glycerol, 5 μg/ml leupeptin, 5 μg/ml aprotinin, 2 mM benzamidine, 0.5 mM DTT, 1 mM PMSF). The protein concentration was determined with the Bradford assay (Sigma-Aldrich, Saint Louis, Mo., USA). Protein extracts were separated on SDS-PAGE before electrophoretic transfer onto a nitrocellulose membrane (Amersham Biosciences, Germany) as described (Ellert-Miklaszewska et al. 2005; Sliwa et al. 2007). After blocking with 5% non-fat milk in TBS-T (Tris-buffered saline pH 7.6/0.15% Tween 20) the membranes were incubated with primary antibodies diluted in a blocking buffer overnight and then with relevant secondary antibodies for one hour. Antibodies recognizing phosphorylated and total forms of p38, ERK1/2, JNK, STAT1, STAT3, STATS, AKT, FAK and IκB as well as Cox-2 (all diluted 1:1000) and horseradish peroxidase-conjugated anti-rabbit IgG (diluted 1:2000) were purchased from Cell Signaling Technology (Beverly, Mass., USA); iNOS (diluted 1:2000) from BD Biosciences (Bedford, Mass., USA). Immunocomplexes were visualized by using ECL (Amersham). […]

[6] = system: microglia cells; assay: qPCR of GCM-induced genes in microglia exposed to GCM of shRNA-expressing C6 glioma cells; format: cell-based, rat; details: FIG. 7B
Description: as §1
To investigate the role of identified proteins in GCM-induced activation of microglia cells, stable C6 glioma cell lines expressing shRNAs specific to osteopontin (shSPP1), or a control, negative shRNA (shNeg) were generated. Silencing efficiency was approximately 98.5% (FIGS. 7A and C). Silencing of […] inhibited GCM-induced expression c-Myc and smad7 in microglia cells (FIG. 7B). […]

DGRGDSV (SYNTHTIC PEPTIDE) [OPN inhibiting peptide]
Id1 expression level (M2 marker) ([1]; FIG. 17B-C): down-regulated | Arg1 expression level (M2 marker) ([1]; vs control peptide, FIG. 17A): down-regulated

DQIGFRT [SCR peptide, reference compound]
transformation of microglia into amoeboid cells following GCM induction [2]: not

TQRGDIF [RGD peptide]
transformation of microglia into amoeboid cells following GCM induction [2]: prevented | GCM-induced phagocytosis [3]: completely blocked | microglia migration in a scratch assay [4]: completely blocked | activation of phosphorylated FAK, Akt and ERK kinases by GCM [5]: abolished

B1: lactadherin shRNA: shRNA to rat lactadherin, oligonucleotides SEQ ID NO: 25 and 26, stably expressed in C6 glioma cells (nucleic acid)
chain 1: GATCCGGATGAAAGCGGAACCGGATTCAAGAGATCCGGTTCCGCTTTCATCCTGTTTTTTGGAAA
chain 2: AGCTTTTCCAAAAAACAGGATGAAAGCGGAACCGGATCTCTTGAATCCGGTTCCGCTTTCATCCG
modifications: the letters are possibly those of the target site
GCM-induced expression c-Myc and smad7 in microglia cells [6]: inhibited
